From US11453703B2, “Heterotandem bicyclic peptide complexes” (BicycleTX Limited, priority 2018, dated 2022)

Tests used:
[1] = molecular target: T1, CD137 (Homo sapiens, UniProt Q07011); assay: CD137 Biacore (SPR) binding assay; parameters: purchased R&D systems; conditions: biotinylated human CD137, 25° C.
Summary of the method: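 Biotinylated human CD137 captured (270-1500 RU) on streptavidin-coupled dextran chip; peptides up to 500 nM in PBS/0.05% Tween 20, 0.5% DMSO, at 25°C, 60 s association, 900 s dissociation. Double-referenced data fitted to 1:1 binding model, with mass transport where appropriate.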

[2] = molecular target: T1, CD137; assay: CD137 reporter assay, co-culture with Nectin-4 tumour cells; format: cell-based; parameters: host or cells: Jurkat reporter cells; conditions: for Fold Induction over Background: tumour target Nectin4, co-culture with H1376, 6 h;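 as to all read-outs here: jurkat reporter cells co-cultured with tumour cells and test article for 6 h, luminescence signal relative to Jurkat plus tumour cells lacking test article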
Description: Culture medium referred to as R1 media is prepared by adding 1% FBS to RPMI-1640 (component of Promega kit CS196005). Serial dilutions of test articles in R1 are prepared in a sterile 96 well-plate. Use 25 μl per well of test articles or R1 (as a background control) to designated wells in white cell culture plate. Tumour cells* are harvested and resuspended at a concentration of 400,000 cells/mL in R1 media. Twenty five (25) μL/well tumour cells are used in white cell culture plate. Jurkat cells (Promega kit CS196005, 0.5 mL) are thawed in the water bath and then added to 5 ml pre-warmed R1 medium. Twenty five (25) μL/well Jurkat cells are used in white cell culture plate. Incubate the cells and test articles for 6h at 37° C., 5% CO2. At the end of 6 h, add 75 μl/well Bio-Glo™ (Promega) and incubate for 10 min before reading luminescence in a plate reader (Clariostar, BMG). The fold change relative to cells (Jurkat cells+Cell line used in co-culture) is calculated and plotted in GraphPad Prism as log(agonist) vs response to determine EC50 (nM) and Fold Induction over background (Max)

[3] = molecular target: T2, human Nectin-4 protein (Homo sapiens, UniProt Q96NY8); assay: Nectin-4 Biacore (SPR) binding assay; conditions: biotinylated human Nectin-4, 25° C.
T2 construct: Human Nectin-4 (residues Gly32-Ser349); host or cells: Sf21 insect cells (baculovirus, pFastbac-1)
T2 sequence (Q96NY8 32-349): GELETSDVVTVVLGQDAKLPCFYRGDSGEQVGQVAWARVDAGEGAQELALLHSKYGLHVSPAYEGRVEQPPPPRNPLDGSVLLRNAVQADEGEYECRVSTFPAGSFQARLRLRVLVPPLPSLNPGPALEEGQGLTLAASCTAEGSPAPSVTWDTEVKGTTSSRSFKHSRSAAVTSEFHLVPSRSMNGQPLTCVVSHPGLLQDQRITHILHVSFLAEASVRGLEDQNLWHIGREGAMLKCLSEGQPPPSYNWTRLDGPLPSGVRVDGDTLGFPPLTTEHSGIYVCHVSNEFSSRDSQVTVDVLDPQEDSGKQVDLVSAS
Description: Biacore experiments were performed to determine ka (M^−1s^−1), kd (s^−1), KD (nM) values of heterotandem peptides binding to human Nectin-4 protein (obtained from Charles River). Human Nectin-4 (residues Gly32-Ser349; NCBI RefSeq: NP_112178.2) with a gp67 signal sequence and C-terminal FLAG tag was cloned into pFastbac-1 and baculovirus made using standard Bac-to-Bac™ protocols (Life Technologies). Sf21 cells at 1×10^6 ml^−1 in Excell-420 medium (Sigma) at 27° C. were infected at an MOI of 2 with a P1 virus stock and the supernatant harvested at 72 hours. The supernatant was batch bound for 1 hour at 4° C. with Anti-FLAG M2 affinity agarose resin (Sigma) washed in PBS and the resin subsequently transferred to a column and washed extensively with PBS. The protein was eluted with 100 μg/ml FLAG peptide. The eluted protein was concentrated to 2 ml and loaded onto an S-200 Superdex column (GE Healthcare) in PBS at 1 ml/min. 2 ml fractions were collected and the fractions containing Nectin-4 protein were concentrated to 16 mg/ml.
The protein was extensively desalted to remove uncoupled biotin using spin columns into PBS.
For analysis of peptide binding, a Biacore 3000 instrument was used with a CM5 chip (GE Healthcare). Streptavidin was immobilized on the chip using standard amine-coupling chemistry at 25° C. with HBS-N (10 mM HEPES, 0.15 M NaCl, pH 7.4) as the running buffer. Briefly, the carboxymethyl dextran surface was activated with a 7 minute injection of a 1:1 ratio of 0.4 M 1-ethyl-3-(3-dimethylaminopropyl) carbodiimide hydrochloride (EDC)/0.1 M N-hydroxy succinimide (NHS) at a flow rate of 10 μl/min. For capture of streptavidin, the protein was diluted to 0.2 mg/ml in 10 mM sodium acetate (pH 4.5) and captured by injecting 120 μl of streptavidin onto the activated chip surface. Residual activated groups were blocked with a 7 minute injection of 1 M ethanolamine (pH 8.5) and biotinylated Nectin-4 captured to a level of 1,200-1,800 RU. Buffer was changed to PBS/0.05% Tween 20 and a dilution series of the peptides was prepared in this buffer with a final DMSO concentration of 0.5%. The top peptide concentration was 100 nM with 6 further 2-fold dilutions. The SPR analysis was run at 25° C. at a flow rate of 50 μl/min with 60 seconds association and dissociation between 400 and 1,200 seconds depending upon the individual peptide. Data were corrected for DMSO excluded volume effects. All data were double-referenced for blank injections and reference surface using standard processing procedures and data processing and kinetic fitting were performed using Scrubber software, version 2.0c (BioLogic Software). Data were fitted using simple 1:1 binding model allowing for mass transport effects where appropriate.

[4] = Pharmacokinetics of CD137 bispecifics in SD rats; format: in vivo; conditions: male, Sprague-Dawley (SD), SD Rat, 2 mg/kg IV, plasma
Description: Male SD Rats were dosed with 2 mg/kg of each Bicycle multimer formulated in 25 mM Histidine HCl, 10% sucrose pH 7. Serial bleeding (about 80 μL blood/time point) was performed via submadibular or saphenous vein at each time point. All blood samples were immediately transferred into prechilled microcentrifuge tubes containing 2 μL K2-EDTA (0.5M) as anti-coagulant and placed on wet ice. Blood samples were immediately processed for plasma by centrifugation at approximately 4° C., 3000 g. The precipitant including internal standard was immediately added into the plasma, mixed well and centrifuged at 12,000 rpm, 4° C. for 10 minutes. The supernatant was transferred into pre-labeled polypropylene microcentrifuge tubes, and then quick-frozen over dry ice. The samples were stored at […] or below as needed until analysis. 7.5 μL of the supernatant samples were directly injected for LC-MS/MS analysis using an Orbitrap Q Exactive in positive ion mode to determine the concentrations of Bicycle multimer. Plasma concentration versus time data were analyzed by non-compartmental approaches using the Phoenix WinNonlin 6.3 software program. C0, CI, Vdss, T½, AUC(0-last), AUC(0-inf), MRT(0-last), MRT(0-inf) and graphs of plasma concentration versus time profile were reported.

[5] = system: human PBMC co-cultured with 4T1-D02 (Nectin4+); assay: Human PBMC-4T1 co-culture (cytokine release) assay; format: cell-based; conditions: anti-CD3 stimulated PBMC, 48 hours
Description: Mouse mammary gland tumor cell line 4T1-1 (4T1-Parental) and murine Nectin-4 overexpressing 4T1 (4T1-D02) were cultured in RPMI1640 supplemented with 10% heat-inactivated Fetal Bovine Serum, 100 I.U/ml Penicillin and 100 I.U/Streptomycin, 20 mM HEPES, 1× Non-Essential Amino Acids, and 2 mM L-Glutamine (RPMI working medium). Frozen PBMCs from healthy human donors were thawed and washed one time in room temperature PBS, and then resuspended in RPMI working medium. For tumor cell and PBMC co-culture, 10000 PBMCs and 2000 tumor cells (5:1) were mixed and plated in each well of a 384 well plate. For stimulating human PBMCs, 125 ng/ml of soluble anti-CD3 mAb (clone OKT3) was added to the culture on day 0. Test, control compounds or vehicle controls were added to respective wells and brought the final volume per well to 100u1. Plates were incubated in a 37° C. cell culture incubator with 5% CO2 for up to three days. Supernatants were collected 48 hours after stimulation, and human IL-2 and IFFγ were detected using HTRF assays. Raw data were analyzed using Excel or Prism software to generate standard curves to interpolate protein concentrations. Data represents one study with three different donor PBMC tested in experimental duplicates.

T1 sequence (Q07011 24-255): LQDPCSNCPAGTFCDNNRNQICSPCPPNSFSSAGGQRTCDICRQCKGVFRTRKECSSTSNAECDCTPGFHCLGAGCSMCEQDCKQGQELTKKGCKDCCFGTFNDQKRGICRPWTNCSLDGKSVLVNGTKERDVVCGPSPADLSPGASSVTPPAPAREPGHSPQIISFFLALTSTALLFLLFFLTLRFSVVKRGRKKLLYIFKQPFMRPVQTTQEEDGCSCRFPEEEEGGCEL

CCCC[C@@H]1NC(=O)[C@H](Cc2ccc(O)cc2)NC(=O)[C@@H]2CCCN2C(=O)[C@H](CC(=O)O)NC(=O)[C@H](C)NC(=O)[C@H](Cc2ccccc2)NC(=O)[C@@H]2CSCCC(=O)N3CN(CN(C3)C(=O)CCSC[C@@H](C(=O)N[C@@H](CNC(=O)CCc3cn(CCCNC(=O)CN(C)C(=O)CN(C)C(=O)CN(C)C(=O)CN(C)C(=O)CN(C)C(=O)CN(C)C(=O)CN(C)C(=O)CN(C)C(=O)CN(C)C(=O)CN(C)C(=O)COCCOCCOCCOCCOCCOCCOCCOCCOCCOCCNC(=O)N[C@H]4CSCCC(=O)N5CN6CN(C5)C(=O)CCSC[C@H](NC(=O)[C@@H](CC(=O)O)NC(=O)[C@H](Cc5cccc7ccccc57)NC(=O)[C@@H]5CCCN5C4=O)C(=O)N[C@@H](CCSC)C(=O)N[C@@H](CCCCNC(=N)N)C(=O)N[C@@H](CC(=O)O)C(=O)N[C@@H](Cc4c[nH]c5ccccc45)C(=O)N[C@@H](CO)C(=O)N[C@@H]([C@@H](C)O)C(=O)N4CCC[C@H]4C(=O)N4C[C@H](O)C[C@H]4C(=O)N[C@@H](Cc4c[nH]c5ccccc45)C(=O)N[C@H](C(N)=O)CSCCC6=O)nn3)C(N)=O)NC1=O)C(=O)CCSC[C@H](NC(=O)[C@H](C)NC(C)=O)C(=O)N[C@@H]([C@@H](C)CC)C(=O)N[C@@H](CCC(=O)O)C(=O)N[C@@H](CCC(=O)O)C(=O)NCC(=O)N[C@@H](CCC(N)=O)C(=O)N[C@@H](Cc1ccc(O)cc1)C(=O)N2 [BCY9408]
Kd [1]: 105 nM | EC50 [2]: 1.1 nM | Fold Induction over Background [2]: 20 fold | Kd [3]: 1.57 nM

CCCC[C@@H]1NC(=O)[C@H](Cc2ccc(O)cc2)NC(=O)[C@@H]2CCCN2C(=O)[C@H](CC(=O)O)NC(=O)[C@H](C)NC(=O)[C@H](Cc2ccccc2)NC(=O)[C@@H]2CSCCC(=O)N3CN(CN(C3)C(=O)CCSC[C@@H](C(=O)N[C@@H](CNC(=O)CCc3cn(CCCNC(=O)CN(C)C(=O)CN(C)C(=O)CN(C)C(=O)CN(C)C(=O)CN(C)C(=O)CN(C)C(=O)CN(C)C(=O)CN(C)C(=O)CN(C)C(=O)CN(C)C(=O)CN(C)C(=O)CN(C)C(=O)CN(C)C(=O)CN(C)C(=O)CN(C)C(=O)COCCOCCOCCOCCOCCNC(=O)N[C@H]4CSCCC(=O)N5CN6CN(C5)C(=O)CCSC[C@H](NC(=O)[C@@H](CC(=O)O)NC(=O)[C@H](Cc5cccc7ccccc57)NC(=O)[C@@H]5CCCN5C4=O)C(=O)N[C@@H](CCSC)C(=O)N[C@@H](CCCCNC(=N)N)C(=O)N[C@@H](CC(=O)O)C(=O)N[C@@H](Cc4c[nH]c5ccccc45)C(=O)N[C@@H](CO)C(=O)N[C@@H]([C@@H](C)O)C(=O)N4CCC[C@H]4C(=O)N4C[C@H](O)C[C@H]4C(=O)N[C@@H](Cc4c[nH]c5ccccc45)C(=O)N[C@H](C(N)=O)CSCCC6=O)nn3)C(N)=O)NC1=O)C(=O)CCSC[C@H](NC(=O)[C@H](C)NC(C)=O)C(=O)N[C@@H]([C@@H](C)CC)C(=O)N[C@@H](CCC(=O)O)C(=O)N[C@@H](CCC(=O)O)C(=O)NCC(=O)N[C@@H](CCC(N)=O)C(=O)N[C@@H](Cc1ccc(O)cc1)C(=O)N2 [BCY9409]
Kd [1]: 97.7 nM | EC50 [2]: 1.2 nM | Fold Induction over Background [2]: 24 fold | Kd [3]: 1.66 nM

CCCC[C@@H]1NC(=O)[C@H](Cc2ccc(O)cc2)NC(=O)[C@@H]2CCCN2C(=O)[C@H](CC(=O)O)NC(=O)[C@H](C)NC(=O)[C@H](Cc2ccccc2)NC(=O)[C@@H]2CSCCC(=O)N3CN(CN(C3)C(=O)CCSC[C@@H](C(=O)N[C@@H](CNC(=O)CCOCCOCCOCCOCCOCCOCCOCCOCCOCCOCCOCCOCCn3cc(CCC(=O)NCCC(=O)N(C)CC(=O)N(C)CC(=O)N(C)CC(=O)N(C)CC(=O)N(C)CC(=O)N(C)CC(=O)N(C)CC(=O)N(C)CC(=O)N(C)CC(=O)N(C)CC(=O)N[C@H]4CSCCC(=O)N5CN6CN(C5)C(=O)CCSC[C@H](NC(=O)[C@@H](CC(=O)O)NC(=O)[C@H](Cc5cccc7ccccc57)NC(=O)[C@@H]5CCCN5C4=O)C(=O)N[C@@H](CCSC)C(=O)N[C@@H](CCCCNC(=N)N)C(=O)N[C@@H](CC(=O)O)C(=O)N[C@@H](Cc4c[nH]c5ccccc45)C(=O)N[C@@H](CO)C(=O)N[C@@H]([C@@H](C)O)C(=O)N4CCC[C@H]4C(=O)N4C[C@H](O)C[C@H]4C(=O)N[C@@H](Cc4c[nH]c5ccccc45)C(=O)N[C@H](C(N)=O)CSCCC6=O)nn3)C(N)=O)NC1=O)C(=O)CCSC[C@H](NC(C)=O)C(=O)N[C@@H](CC(C)(C)C)C(=O)N1CCC[C@H]1C(=O)N[C@@H](CCC(=O)O)C(=O)N[C@H](C)C(=O)N1CCC[C@H]1C(=O)N[C@@H](Cc1ccc(O)cc1)C(=O)N2 [BCY10000]
Fold Induction over Background [2]: 61 fold | clearance ([4]; read-out: Clp): 0.966 L/h/kg | half-life ([4]; read-out: T½ (converted)): 21.4 min | Vd ([4]; read-out: Vdss): 0.395 L/kg | EC50 ([5]; IFN-γ secretion): 0.21 nM | max IFN-y [5]: 19642 pg/mL
